Measurements taken from US20260327233A1, “Heteroaryl Compounds as Ligand Directed Degraders of IRAK4” (Celgene Corporation, priority 2023, published 2026).
Structures can show the parent of a compound that is named as a salt.

Tests used:
IRAK4 [1] = target: T1, IRAK4 (Homo sapiens, UniProt Q9NWZ3); assay: ALE THP1 HTRF (IRAK4 HTRF in THP1 cell lysate, Cisbio HTRF kit); format: cell-based; design: THP1 Homogeneous Time Resolved Fluorescence (ALE THP1 HTRF) Procedure; endogenous in cells; host or cells: THP1; conditions: anti-IRAK4 d2 / anti-IRAK4 k antibodies
T1 sequence (Q9NWZ3 1-460): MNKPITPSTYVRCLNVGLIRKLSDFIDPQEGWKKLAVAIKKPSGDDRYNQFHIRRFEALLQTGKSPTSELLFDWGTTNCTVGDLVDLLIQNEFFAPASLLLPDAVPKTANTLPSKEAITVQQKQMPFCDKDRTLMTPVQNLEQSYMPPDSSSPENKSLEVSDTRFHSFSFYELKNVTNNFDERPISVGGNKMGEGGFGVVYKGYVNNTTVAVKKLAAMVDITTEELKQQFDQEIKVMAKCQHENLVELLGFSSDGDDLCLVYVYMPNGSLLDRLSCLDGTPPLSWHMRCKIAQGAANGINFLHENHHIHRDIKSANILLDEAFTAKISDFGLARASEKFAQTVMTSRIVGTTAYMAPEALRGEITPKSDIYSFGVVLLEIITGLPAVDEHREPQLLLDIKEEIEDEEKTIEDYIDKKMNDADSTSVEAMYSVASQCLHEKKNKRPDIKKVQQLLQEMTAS
Protocol: Cell culture media was prepared in a tissue culture hood in a sterile environment by adding 10% FBS and 1% Penicillin Streptomycin to 500 mL no phenol red RPMI 1640 media. The media was filtered through a Nalgene Bottle Top Filter and stored at 4° C.
For Homogenous Time Resolved Fluorescence (HTRF) assays, a Cisbio HTRF kit was used, which included: Lysis Buffer #1 4×, Blocking Reagent #3 100×, 20× Antibody 1 (Anti-IRAK4 d2), 20× Antibody 2 (Anti-IRAK4 k), and Detection Buffer.
4× Lysis Buffer was stored at 4° C. For use as 1× Lysis buffer, the 4× solution was diluted with de-ionized water (distilled water, Gibco Cat. #15230279) and 100× Blocking Reagent in a 1:3:0.04 volume ratio.
20× Antibody Solution aliquots were stored at −80° C. and the Detection Buffer was stored at 4° C. For use as a 1× Antibody Solution, the 20× Antibody Solution aliquot was diluted with Detection Buffer in a 1:19 volume ratio.
Cells were lysed at room temperature for 45 min with shaking. A BCA protein assay was performed and normalization was conducted to the desired total protein concentration with 1× lysis buffer. Next, 1× Antibody Solutions were prepared by adding 380 μL Detection Buffer to 20 μL 20× Antibody Solution aliquots and mixing well. 1× Antibody Solutions were combined 1:1 and briefly vortexed. For control wells, 20 μL 1× anti IRAK4-k Antibody Solution was saved. The 384-well plate (ProxiPlate-384 Plus, Perkin Elmer Cat. #6008289) was loaded by adding 4 μL of the mixed Antibody Solution to empty wells using a single channel repeater. Using a multi-channel repeater, 16 μL lysate was added per well, and any bubbles that were formed were popped with 20 μL pipette tips and Kimwipe edges. In column 10, triplicates of each control were prepared. In wells A10, B10, and C10, buffer control was prepared by adding 16 μL Lysis Buffer and 4 μL Detection Buffer. In wells D10, E10, and F10, cryptate control was prepared by adding 16 μL Lysis Buffer, 2 μL Detection Buffer, and 2 μL 1× anti-IRAK4-k Antibody Solution. In wells G10, H10, and 110, a negative control was prepared by adding 16 μL Lysis Buffer and 4 μL mixed Antibody Solution. The plate was sealed with a clear seal and covered with an aluminum lid. The plate was spun down at 800 g for 5 min and incubated in the dark at room temperature overnight. The next day, the plate was spun down at 800 g for 5 min. The samples were analyzed by a plate reader (Envision, PerkinElmer) using the Desnor 384 HTRF program.

IRAK4 [2] = target: T1, IRAK4; assay: IRAK4 PhosphoSens Biochemical Assay (BIOCHEM); conditions: IRAK4 1 nM; ATP and Sox conjugated peptide substrate AQT0326; pH 7.5; room temperature; 240 minutes
Protocol: The PhosphoSens® biochemical assay was performed as described by the vendor (AssayQuant Technologies Inc. Marlborough, MA). A 1.25× stock solution of IRAK4 (PV4002, ThermoFisher Scientific, Waltham, MA) and a 5× stock solution of ATP and Sox conjugated peptide substrate, AQT0326 (CSKS-AQT0326B, AssayQuant Technologies), were prepared in 1× kinase reaction buffer consisting of 50 mM HEPES, pH 7.5, 0.01% Brij-35, 0.5 mM EGTA, 20 mM MgCl2 and 1 mM DTT. 10 μL of the ATP and substrate solution mix, for a final concentration of 200 µM ATP and […] peptide substrate, was added to a Corning 3574 384-well, white, non-binding surface microtiter plate containing 0.5 μL of serially diluted test compounds prepared in DMSO. The reactions were started with the addition of 40 μL of the enzyme solution, for a final IRAK4 concentration of 1 nM, and monitored every 71 seconds for 240 minutes at λEX 360/λEM 485 in a BioTek Synergy H4 plate reader (Agilent Technologies, Santa Clara, CA) at room temperature. The initial linear portions of the progress curves were fit according to a linear equation to yield the slopes and converted to % inhibition based on a value of 100% activity for the no inhibitor treated control. IC50 values of each compound were obtained by fitting the % inhibition-compound concentration curves using Dotmatics software (Dotmatics, Bishops Stortford, Hertfordshire, England),

Row | SMILES | EC50 (IRAK4 [1]) [nM] | ALE THP1 HTRF YMIN (IRAK4 [1]) [%] | IC50 (IRAK4 [2]) [nM]
1 | N[C@@H]1C[C@@H](F)CN(c2ccn3ncc(C(=O)Nc4cn([C@H]5CC[C@H](C(=O)N6CCN(c7ccc8c(c7)C(=O)N(C7CCC(=O)NC7=O)C8)CC6)CC5)nc4C(F)F)c3n2)C1 (stereo partly drawn) [Compound P-21] | 5 | 18 | < 0.5
2 | N[C@@H]1C[C@@H](F)CN(c2ccn3ncc(C(=O)Nc4cn([C@H]5CC[C@H](C(=O)N6CCN(c7ccc8c(c7)C(=O)N(C7CCC(=O)NC7=O)C8)CC6)CC5)nc4C(F)(F)F)c3n2)C1 (stereo partly drawn) [Compound P-22] | 3 | 27 | < 0.5
3 | N#Cc1nn([C@H]2CC[C@H](C(=O)NC3CCN(c4ccc5c(c4)C(=O)N(C4CCC(=O)NC4=O)C5=O)CC3)CC2)cc1NC(=O)c1cnn2ccc(N3C[C@H](N)C[C@@H](F)C3)nc12 (stereo partly drawn) [Compound P-23] | 8 | 20 | < 0.5
4 | N[C@@H]1C[C@@H](F)CN(c2ccn3ncc(C(=O)Nc4cn([C@H]5CC[C@H](C(=O)NC6CCN(c7ccc8c(c7)CN(C7CCC(=O)NC7=O)C8=O)CC6)CC5)nc4C(F)F)c3n2)C1 (stereo partly drawn) [Compound P-24] | 4 | 11 | < 0.5
5 | N[C@@H]1C[C@@H](F)CN(c2ccn3ncc(C(=O)Nc4cn([C@H]5CC[C@H](C(=O)NC6CCN(c7ccc8c(c7)C(=O)N(C7CCC(=O)NC7=O)C8)CC6)CC5)nc4C(F)F)c3n2)C1 (stereo partly drawn) [Compound P-25] | 7 | 11 | < 0.5
6 | N[C@@H]1C[C@@H](F)CN(c2ccn3ncc(C(=O)Nc4cn([C@H]5CC[C@H](CN6CCN(c7ccc8c(c7)C(=O)N(C7CCC(=O)NC7=O)C8=O)CC6)CC5)nc4C(F)F)c3n2)C1 (stereo partly drawn) [Compound P-26] | 6 | 29 | < 0.5
7 | Cc1nn([C@H]2CC[C@H](C(=O)NC3CCN(c4ccc5c(c4)C(=O)N(C4CCC(=O)NC4=O)C5=O)CC3)CC2)cc1NC(=O)c1cnn2ccc(N3C[C@H](N)C[C@@H](F)C3)nc12 (stereo partly drawn) [Compound P-27, N-[1-[4-[[1-[2-(2,6-dioxo-3-piperidyl)-1,3-dioxo-isoindolin-5-yl]-4-piperidyl]carbamoyl]cyclohexyl]-3-methyl-pyrazol-4-yl]-5-[(3R,5R)-3-amino-5-fluoro-1-piperidyl]pyrazolo[1,5-a]pyrimidine-3-carboxamide hydroxhloride] | 26 | 24 | < 0.5
8 | Cc1c(NC(=O)c2cnn3ccc(N4C[C@H](N)C[C@@H](F)C4)nc23)cnn1[C@H]1CC[C@H](C(=O)NC2CCN(c3ccc4c(c3)C(=O)N(C3CCC(=O)NC3=O)C4=O)CC2)CC1 (stereo partly drawn) [Compound P-28] | > 10000 | >95 | > 1
9 | N[C@@H]1C[C@@H](F)CN(c2ccn3ncc(C(=O)Nc4cn([C@H]5CC[C@H](NC(=O)C6CCN(c7ccc8c(c7)C(=O)N(C7CCC(=O)NC7=O)C8=O)CC6)CC5)nc4C(F)F)c3n2)C1 (stereo partly drawn) [Compound P-29, 5-[(3R,5R)-3-Amino-5-fluoro-1-piperidyl]-N-[3-(difluoromethyl)-1-[4-[[1-[2-(2,6-dioxo-3-piperidyl)-1,3-dioxo-isoindolin-5-yl]piperidine-4-carbonyl]amino]cyclohexyl]pyrazol-4-yl]pyrazolo[1,5-a]pyrimidine-3-carboxamide hydrochloride] | 4 | 10 | < 0.5
10 | N[C@@H]1C[C@@H](F)CN(c2ccn3ncc(C(=O)Nc4cn([C@H]5CC[C@H](CCN6CCN(c7ccc8c(c7)CN(C7CCC(=O)NC7=O)C8=O)CC6)CC5)nc4C(F)F)c3n2)C1 (stereo partly drawn) [Compound P-30, N-[3-(Difluoromethyl)-1-[4-[2-[4-[2-(2,6-dioxo-3-piperidyl)-1-oxo-isoindolin-5-yl]piperazin-1-yl]ethyl]cyclohexyl]pyrazol-4-yl]-5-[(3R,5R)-3-amino-5-fluoro-1-piperidyl]pyrazolo[1,5-a]pyrimidine-3-carboxamide dihydrochloride] | 8 | 10 | < 0.5
11 | O=C1CCC(N2Cc3cc(N4CCC(NC(=O)[C@H]5CC[C@H](n6cc(NC(=O)c7cnn8ccc(N9CCOCC9)nc78)c(C(F)F)n6)CC5)CC4)ccc3C2=O)C(=O)N1 (stereo partly drawn) [Compound P-31, N-[3-(difluoromethyl)-1-[4-[[1-[2-(2,6-dioxo-3-piperidyl)-1-oxo-isoindolin-5-yl]-4-piperidyl]carbamoyl]cyclohexyl]pyrazol-4-yl]-5-morpholino-pyrazolo[1,5-a]pyrimidine-3-carboxamide] | 7 | 27 | < 0.5
12 | CN(C[C@H]1CC[C@H](n2cc(NC(=O)c3cnn4ccc(N5C[C@H](N)C[C@@H](F)C5)nc34)c(C(F)F)n2)CC1)C1CCN(c2ccc3c(c2)CN(C2CCC(=O)NC2=O)C3=O)CC1 (stereo partly drawn) [Compound P-32, N-[3-(Difluoromethyl)-1-[4-[[[1-[2-(2,6-dioxo-3-piperidyl)-1-oxo-isoindolin-5-yl]-4-piperidyl]-methyl-amino]methyl]cyclohexyl]pyrazol-4-yl]-5-[(3r,5r)-3-amino-5-fluoro-1-piperidyl]pyrazolo[1,5-a]pyrimidine-3-carboxamide hydrochloride] | 6 | 12 | < 0.5
13 | C[C@@H]1CN(c2ccn3ncc(C(=O)Nc4cn([C@H]5CC[C@H](C(=O)NC6CCN(c7ccc8c(c7)CN(C7CCC(=O)NC7=O)C8=O)CC6)CC5)nc4C(F)F)c3n2)C[C@H](C)O1 (stereo partly drawn) [Compound P-33] | 24 | 68 | 9.4
14 | CN(c1ccc2c(c1)CN(C1CCC(=O)NC1=O)C2=O)C1CCN(C[C@H]2CC[C@H](n3cc(NC(=O)c4cnn5ccc(N6C[C@H](N)C[C@@H](F)C6)nc45)c(C(F)F)n3)CC2)CC1 (stereo partly drawn) [Compound P-34] | 6 | 9 | < 0.5
15 | CN(C[C@H]1CC[C@H](n2cc(NC(=O)c3cnn4ccc(N5CCOCC5)nc34)c(C(F)F)n2)CC1)[C@H]1CC[C@H](Nc2cccc3c2C(=O)N(C2CCC(=O)NC2=O)C3=O)CC1 (stereo partly drawn) [Compound P-36] | 9 | 29 | 0.9
16 | CN(C[C@H]1CC[C@H](n2cc(NC(=O)c3cnn4ccc(N5C[C@H](N)C[C@@H](F)C5)nc34)c(C(F)F)n2)CC1)[C@H]1CC[C@H](Nc2cccc3c2C(=O)N(C2CCC(=O)NC2=O)C3=O)CC1 (stereo partly drawn) [Compound P-37] | 20 | 12 | < 0.5
